pIC50: −log10 of the molar value.
Legend:
A549 = test: Cytotoxicity against human A549 cells assessed as reduction in cell viability by Sulforhodamine B assay; format: functional, cell-based
HT-29 = test: Cytotoxicity against human HT-29 cells assessed as reduction in cell viability by Sulforhodamine B assay; format: functional, cell-based
[1] = Cytotoxicity against rat ASK cells assessed as reduction in cell viability by Sulforhodamine B assay; format: functional, cell-based
KB = test: Cytotoxicity against human KB cells assessed as reduction in cell viability by Sulforhodamine B assay; format: functional, cell-based
HEK293 = test: Cytotoxicity against HEK293 cells assessed as reduction in cell viability by Sulforhodamine B assay; format: cell-based; conditions: Homo sapiens
MCF7 = test: Cytotoxicity against human MCF7 cells assessed as reduction in cell viability by Sulforhodamine B assay; format: functional, cell-based
P388 = test: Cytotoxicity against mouse P388 cells assessed as reduction in cell viability by Sulforhodamine B assay; format: functional, cell-based

SMILES | pIC50 (A549) | pIC50 (HT-29) | pIC50 [1] | pIC50 (KB) | pIC50 (HEK293) | pIC50 (MCF7) | pIC50 (P388)
COC(=O)C1=CO[C@@H](O[C@H]2O[C@@H](CO)[C@H](O)[C@@H](O)[C@@H]2O)[C@@H]2[C@@](C)(O)[C@@H](OC(=O)/C=C/c3ccccc3)C[C@]12O | < 4.30 | < 4.30 | < 4.30 | < 4.30 | < 4.30 | < 4.30 | < 4.30
COC(=O)C1=CO[C@@H](O[C@H]2O[C@@H](CO[Si](C)(C)C(C)(C)C)[C@H](OC(C)=O)[C@@H](OC(C)=O)[C@@H]2OC(C)=O)[C@@H]2[C@@](C)(O)[C@@H](OC(=O)/C=C/c3ccccc3)C[C@]12O | < 4.30 | < 4.30 | < 4.30 | < 4.30 | 4.50 | 4.36 | 5.51
COC(=O)C1=CO[C@@H](O[C@H]2O[C@@H](CO[Si](c3ccccc3)(c3ccccc3)C(C)(C)C)[C@H](OC(C)=O)[C@@H](OC(C)=O)[C@@H]2OC(C)=O)[C@@H]2[C@@](C)(O)[C@@H](OC(=O)/C=C/c3ccccc3)C[C@]12O | < 4.30 | 4.43 | < 4.30 | < 4.30 | < 4.30 | < 4.30 | 5.21
COC(=O)C1=CO[C@@H](O[C@H]2O[C@@H](COC(C)=O)[C@H](OC(C)=O)[C@@H](OC(C)=O)[C@@H]2OC(C)=O)[C@@H]2[C@@](C)(OC(C)=O)[C@@H](OC(=O)/C=C/c3ccccc3)C[C@]12O | < 4.30 | < 4.30 | < 4.30 | < 4.30 | 4.35 | < 4.30 | < 4.30
COC(=O)C1=CO[C@@H](O[C@H]2O[C@@H](CO[Si](c3ccccc3)(c3ccccc3)C(C)(C)C)[C@H](OC(C)=O)[C@@H](OC(C)=O)[C@@H]2OC(C)=O)[C@@H]2[C@@](C)(O)[C@@H](OC(C)=O)C[C@]12O | 5.09 | 4.46 | 5.04 | 4.83 | 5.13 | 5.05 | 5.44
COC(=O)C1=CO[C@@H](O[C@H]2O[C@@H](COC(C)=O)[C@H](OC(C)=O)[C@@H](OC(C)=O)[C@@H]2OC(C)=O)[C@@H]2[C@@](C)(O)[C@@H](OC(=O)/C=C/c3ccccc3)C[C@]12O | < 4.30 | < 4.30 | < 4.30 | < 4.30 | < 4.30 | < 4.30 | < 4.30
Cc1c2ccncc2c(C)c2c1[nH]c1ccccc12 [ELLIPTECINE] | 5.71 | 5.70 | 5.69 | 5.67 | 5.72 | 5.70 | 5.74

Source: ChEMBL document CHEMBL4118115, “Synthetic analogues of durantoside I from Citharexylum spinosum L. and their cytotoxic activity” (Bioorg Med Chem Lett, 2018)
